Test: Release (dissolution) profile of capsules, USP Apparatus 2 (paddle)
Assay type: physicochemical
Description: USP Apparatus 2 (Paddle Apparatus) is described, for example, in the United States Pharmacopeial Convention, Feb. 1, 2012, Chapter <711> (“Dissolution”), incorporated by reference herein in its entirety. See http://www.usp.org/sites/default/files/usp_pdf/EN/USPNF/revisions/m99470-gc_711.pdf. The assembly from Apparatus 1 is used, except that a paddle formed from a blade and a shaft is used as the stirring element. The shaft is positioned so that its axis is not more than 2 mm from the vertical axis of the vessel at any point and rotates smoothly without significant wobble that could affect the results. The vertical center line of the blade passes through the axis of the shaft so that the bottom of the blade is flush with the bottom of the shaft. A distance of 25±2 mm between the bottom of the blade and the inside bottom of the vessel is maintained during the test. The metallic or suitably inert, rigid blade and shaft comprise a single entity. A suitable two-part detachable design may be used provided the assembly remains firmly engaged during the test. The paddle blade and shaft may be coated with a suitable coating so as to make them inert. The dosage unit is allowed to sink to the bottom of the vessel before rotation of the blade is started. A small, loose piece of nonreactive material, such as not more than a few turns of wire helix, may be attached to dosage units that would otherwise float. Other validated sinker devices may be used.
Unless otherwise specified, the release profiles for capsules were measured using USP Apparatus 2 (paddle).
All release profiles disclosed in Tables 3c-3p were measured with USP Apparatus 2 (paddle) at 50 rpm in 500 mL of aqueous sodium phosphate at a concentration of 0.05 M (pH=6.8). The values in a given table relate to capsules obtained from the same batch. Values shown represent mean values over a number of dissolution tests (“n” in each table) in each case.

With `O=C(O)COC[C@H]1CC[C@H](COC(=O)N(c2ccccc2)c2ccc(Cl)cc2)CC1` [Compound 1, 2-(((1r,4r)-4-(((4-chlorophenyl)(phenyl)carbamoyloxy)methyl)cyclohexyl)methoxy)acetic acid] the “mean value (n = 6) of % of Compound 1 released” value (Table 3k: size 4 capsule, 0.03 mg Compound 1, Poloxamer 188:food grade GMS 50:50, 360 min) was 91.4%, the “mean value (n = 6) of % of Compound 1 released” value (Table 3k: size 4 capsule, 0.03 mg Compound 1, Poloxamer 188:food grade GMS 50:50, 480 min) was 98.3% and the “mean value (n = 4) of % of Compound 1 released” value (Table 3l: size 4 capsule, 0.5 mg Compound 1, Poloxamer 188:food grade GMS 50:50, 30 min) was 9.9%. The “mean value (n = 4) of % of Compound 1 released” value (Table 3l: size 4 capsule, 0.5 mg Compound 1, Poloxamer 188:food grade GMS 50:50, 60 min) was 22.2%, the “mean value (n = 4) of % of Compound 1 released” value (Table 3l: size 4 capsule, 0.5 mg Compound 1, Poloxamer 188:food grade GMS 50:50, 120 min) was 42.9% and the “mean value (n = 4) of % of Compound 1 released” value (Table 3l: size 4 capsule, 0.5 mg Compound 1, Poloxamer 188:food grade GMS 50:50, 180 min) was 61.5%. The “mean value (n = 4) of % of Compound 1 released” value (Table 3l: size 4 capsule, 0.5 mg Compound 1, Poloxamer 188:food grade GMS 50:50, 240 min) was 76.9%, the “mean value (n = 4) of % of Compound 1 released” value (Table 3l: size 4 capsule, 0.5 mg Compound 1, Poloxamer 188:food grade GMS 50:50, 360 min) was 92.2% and the “mean value (n = 4) of % of Compound 1 released” value (Table 3l: size 4 capsule, 0.5 mg Compound 1, Poloxamer 188:food grade GMS 50:50, 480 min) was 96.7%. For the same molecule, the “mean value (n = 6) of % of Compound 1 released” value (Table 3m: size 4 capsule, 0.03 mg Compound 1, Poloxamer 188:food grade GMS 30:70, 60 min) was 15.3%, the “mean value (n = 6) of % of Compound 1 released” value (Table 3m: size 4 capsule, 0.03 mg Compound 1, Poloxamer 188:food grade GMS 30:70, 120 min) was 27.4% and the “mean value (n = 6) of % of Compound 1 released” value (Table 3m: size 4 capsule, 0.03 mg Compound 1, Poloxamer 188:food grade GMS 30:70, 180 min) was 38.4%. The “mean value (n = 6) of % of Compound 1 released” value (Table 3m: size 4 capsule, 0.03 mg Compound 1, Poloxamer 188:food grade GMS 30:70, 240 min) was 49.0%, the “mean value (n = 6) of % of Compound 1 released” value (Table 3m: size 4 capsule, 0.03 mg Compound 1, Poloxamer 188:food grade GMS 30:70, 360 min) was 70.1% and the “mean value (n = 6) of % of Compound 1 released” value (Table 3m: size 4 capsule, 0.03 mg Compound 1, Poloxamer 188:food grade GMS 30:70, 480 min) was 85.9%. For the same molecule, the “mean value (n = 6) of % of Compound 1 released” value (Table 3m: size 4 capsule, 0.03 mg Compound 1, Poloxamer 188:food grade GMS 30:70, 600 min) was 93.5%, the “mean value (n = 6) of % of Compound 1 released” value (Table 3m: size 4 capsule, 0.03 mg Compound 1, Poloxamer 188:food grade GMS 30:70, 720 min) was 97.6% and the “mean value (n = 6) of % of Compound 1 released” value (Table 3m: size 4 capsule, 0.03 mg Compound 1, Poloxamer 188:food grade GMS 30:70, 840 min) was 99.0%. For the same molecule, the “mean value (n = 4) of % of Compound 1 released” value (Table 3n: size 4 capsule, 0.5 mg Compound 1, Poloxamer 188:food grade GMS 30:70, 30 min) was 7.9%, the “mean value (n = 4) of % of Compound 1 released” value (Table 3n: size 4 capsule, 0.5 mg Compound 1, Poloxamer 188:food grade GMS 30:70, 60 min) was 15.5% and the “mean value (n = 4) of % of Compound 1 released” value (Table 3n: size 4 capsule, 0.5 mg Compound 1, Poloxamer 188:food grade GMS 30:70, 120 min) was 26.9%. For the same molecule, the “mean value (n = 4) of % of Compound 1 released” value (Table 3n: size 4 capsule, 0.5 mg Compound 1, Poloxamer 188:food grade GMS 30:70, 180 min) was 37.9%, the “mean value (n = 4) of % of Compound 1 released” value (Table 3n: size 4 capsule, 0.5 mg Compound 1, Poloxamer 188:food grade GMS 30:70, 240 min) was 48.8% and the “mean value (n = 4) of % of Compound 1 released” value (Table 3n: size 4 capsule, 0.5 mg Compound 1, Poloxamer 188:food grade GMS 30:70, 360 min) was 68.7%. For the same molecule, the “mean value (n = 4) of % of Compound 1 released” value (Table 3n: size 4 capsule, 0.5 mg Compound 1, Poloxamer 188:food grade GMS 30:70, 480 min) was 83.4%, the “mean value (n = 4) of % of Compound 1 released” value (Table 3n: size 4 capsule, 0.5 mg Compound 1, Poloxamer 188:food grade GMS 30:70, 600 min) was 90.6% and the “mean value (n = 4) of % of Compound 1 released” value (Table 3n: size 4 capsule, 0.5 mg Compound 1, Poloxamer 188:food grade GMS 30:70, 720 min) was 94.7%. For the same molecule, the “mean value (n = 4) of % of Compound 1 released” value (Table 3n: size 4 capsule, 0.5 mg Compound 1, Poloxamer 188:food grade GMS 30:70, 735 min) was 95.7%, the “mean value (n = 4) of % of Compound 1 released” value (Table 3o: size 4 capsule, 0.5 mg Compound 1, Poloxamer 188:food grade GMS 30:70, 30 min) was 5.6% and the “mean value (n = 4) of % of Compound 1 released” value (Table 3o: size 4 capsule, 0.5 mg Compound 1, Poloxamer 188:food grade GMS 30:70, 60 min) was 13.3%. For the same molecule, the “mean value (n = 4) of % of Compound 1 released” value (Table 3o: size 4 capsule, 0.5 mg Compound 1, Poloxamer 188:food grade GMS 30:70, 120 min) was 25.5%, the “mean value (n = 4) of % of Compound 1 released” value (Table 3o: size 4 capsule, 0.5 mg Compound 1, Poloxamer 188:food grade GMS 30:70, 180 min) was 37.7% and the “mean value (n = 4) of % of Compound 1 released” value (Table 3o: size 4 capsule, 0.5 mg Compound 1, Poloxamer 188:food grade GMS 30:70, 240 min) was 49.7%. The “mean value (n = 4) of % of Compound 1 released” value (Table 3o: size 4 capsule, 0.5 mg Compound 1, Poloxamer 188:food grade GMS 30:70, 360 min) was 71.2%, the “mean value (n = 4) of % of Compound 1 released” value (Table 3o: size 4 capsule, 0.5 mg Compound 1, Poloxamer 188:food grade GMS 30:70, 480 min) was 84.0% and the “mean value (n = 4) of % of Compound 1 released” value (Table 3o: size 4 capsule, 0.5 mg Compound 1, Poloxamer 188:food grade GMS 30:70, 600 min) was 89.7%. The “mean value (n = 4) of % of Compound 1 released” value (Table 3o: size 4 capsule, 0.5 mg Compound 1, Poloxamer 188:food grade GMS 30:70, 720 min) was 93.1%, the “mean value (n = 4) of % of Compound 1 released” value (Table 3o: size 4 capsule, 0.5 mg Compound 1, Poloxamer 188:food grade GMS 30:70, 735 min) was 94.8% and the “mean value (n = 4) of % of Compound 1 released” value (Table 3p: size 4 capsule, 0.5 mg Compound 1, Poloxamer 188:food grade GMS 30:70, 30 min) was 7.3%. For the same molecule, the “mean value (n = 4) of % of Compound 1 released” value (Table 3p: size 4 capsule, 0.5 mg Compound 1, Poloxamer 188:food grade GMS 30:70, 60 min) was 14.3%, the “mean value (n = 4) of % of Compound 1 released” value (Table 3p: size 4 capsule, 0.5 mg Compound 1, Poloxamer 188:food grade GMS 30:70, 120 min) was 26.1% and the “mean value (n = 4) of % of Compound 1 released” value (Table 3p: size 4 capsule, 0.5 mg Compound 1, Poloxamer 188:food grade GMS 30:70, 180 min) was 38.5%. For the same molecule, the “mean value (n = 4) of % of Compound 1 released” value (Table 3p: size 4 capsule, 0.5 mg Compound 1, Poloxamer 188:food grade GMS 30:70, 240 min) was 51.1%, the “mean value (n = 4) of % of Compound 1 released” value (Table 3p: size 4 capsule, 0.5 mg Compound 1, Poloxamer 188:food grade GMS 30:70, 360 min) was 74.3% and the “mean value (n = 4) of % of Compound 1 released” value (Table 3p: size 4 capsule, 0.5 mg Compound 1, Poloxamer 188:food grade GMS 30:70, 480 min) was 87.0%. The “mean value (n = 4) of % of Compound 1 released” value (Table 3p: size 4 capsule, 0.5 mg Compound 1, Poloxamer 188:food grade GMS 30:70, 600 min) was 92.3% and the “mean value (n = 4) of % of Compound 1 released” value (Table 3p: size 4 capsule, 0.5 mg Compound 1, Poloxamer 188:food grade GMS 30:70, 720 min) was 95.0%.
